These results are taken from paper PMC6350621, “Small-molecules that covalently react with a human prolyl hydroxylase – towards activity modulation and substrate capture” (Chemical Communications (Cambridge, England), 2018).

Assay [1] concerns the target T1, PHD2 (Homo sapiens, UniProt Q9GZT9).
T1 construct: PHD2_181–426 (hereafter PHD2); His6 (N, cleaved yes); made in house; host or cells: bacterial culture (2x TY, kanamycin, IPTG)
The assay can be described thus: Peptide turnover assay (CODD hydroxylation) with MALDI-MS detection. Conditions: pre-incubation 0, 1, 2 and 4 h. It counts as biochemical.

Assay [2] deals with T2, PHD2Δ (deletion of residues 238–250) (Homo sapiens, UniProt Q9GZT9, DEL238-250).
T2 construct: PHD2_181–426 (hereafter PHD2); His6 (N, cleaved yes); made in house; host or cells: bacterial culture (2x TY, kanamycin, IPTG)
T2 sequence (Q9GZT9 with tags, fused parts or gaps DEL238-250): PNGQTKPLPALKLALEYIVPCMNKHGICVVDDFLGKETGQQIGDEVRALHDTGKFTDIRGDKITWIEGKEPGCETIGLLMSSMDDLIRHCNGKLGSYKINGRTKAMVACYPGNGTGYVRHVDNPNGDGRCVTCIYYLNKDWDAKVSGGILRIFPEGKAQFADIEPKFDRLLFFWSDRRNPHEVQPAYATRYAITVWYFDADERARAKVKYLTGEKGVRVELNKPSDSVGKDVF
Briefly: Non-denaturing ESI-MS crosslinking, loop deletion variant. It counts as binding. Particulars: equimolar Fe(II) and compound, 3 h, 37 °C, 200 V. As for the experimental part: (§1) The site of crosslinking of 3 was investigated using protein variants. First, 3 was incubated with C-terminal truncated PHD2 (PHD2_181–402) and a loop deletion variant (deletion of residues 238–250, PHD2Δ). […] Thus, 3 was incubated with PHD2 constructs truncated at residues 402, 410, 414 and 418. […] Crosslinking experiments with PHD2 R411M implied that R411 is not directly involved in crosslinking (Fig. S11, ESI ^†).
(§2) Fig. 3 (A) Non-denaturing ESI-MS data on the flexible loop truncated (top) and C-terminal tail tuncated (bottom) versions of PHD2 in the presence of equimolar Fe(II) and 3 (3 hour incubation, 37 °C. Cone voltage: 200 V). A = [PHD2Δ + Fe], B = [PHD2Δ + Fe + 3], C = [PHD2_181–402 + Fe], D = [PHD2_181–402 + Fe + 3]. (B) MS/MS spectrum of the trypsin derived peptide 403[…]411 crosslinked to 3 identified K408 as the site of crosslinking.

Assay [3] has as its target T3, PHD2_181–402 (Homo sapiens, UniProt Q9GZT9).
T3 construct: C-terminal truncated PHD2 (PHD2_181–402); His6 (N, cleaved yes); made in house; host or cells: bacterial culture (2x TY, kanamycin, IPTG)
Briefly: Non-denaturing ESI-MS crosslinking, C-terminal truncated PHD2. It counts as binding. Conditions: equimolar Fe(II) and compound, 3 h, 37 °C, 200 V. The procedure:
as §1, §2
(§3) Fig. S8 Temperature dependence of the rate of crosslinking of 3 with PHD2. PHD2 (20 µM) was incubated with equimolar Fe(II) and 3 in buffer (50 mM Tris, 150 mM NaCl, pH 7.5) at 4, 20 and 37 °C. The ratio of crosslinking after 1, 2, and 4 h was determined by ESI-MS under denaturing conditions (n = 2), error bars represent 1 standard deviation.
(§4) Fig. S9 Ratio of crosslinked PHD2.3 before evaluation of catalytic activity. Labelled peaks correspond to: (A): PHD2, […]

Assay [4] concerns the target T4, PHD2_181–418 (Homo sapiens, UniProt Q9GZT9).
T4 construct: Both the 418 (PHD2_181–418); His6 (N, cleaved yes); made in house; host or cells: bacterial culture (2x TY, kanamycin, IPTG)
The assay can be described thus: Non-denaturing ESI-MS crosslinking, 418 truncate. It counts as binding. Conditions: equimolar FeSO4 and compound, 3 h, 37 °C, 200 V. The procedure: as §1, §3, §4
(§5) Fig. S10 Non-denaturing ESI-MS analysis of (a) PHD2 and its C-terminal truncations (b) PHD2181-418; (c) PHD2181-414;
(§6) (d) PHD2181-410; (e) PHD2181-402 in the presence of equimolar amounts of FeSO4 and 3 after 3 hours incubation at 37 °C in ammonium acetate (15 mM, pH 7.5) at a sample cone voltage of 200V. Peaks present: (A): PHD2.Fe; (B): PHD2181-

Assay [5] concerns the target T5, PHD2_181–414 (Homo sapiens, UniProt Q9GZT9).
T5 construct: 414 (PHD2_181–414) truncated proteins; His6 (N, cleaved yes); made in house; host or cells: bacterial culture (2x TY, kanamycin, IPTG)
The assay can be described thus: Non-denaturing ESI-MS crosslinking, 414 truncate. It counts as binding. Conditions: equimolar FeSO4 and compound, 3 h, 37 °C, 200 V. As for the experimental part: as §1, §3, §4, §5, §6

The target of assay [6] is T6, PHD2 truncated at residue 410 (Homo sapiens, UniProt Q9GZT9).
T6 construct: PHD2 constructs truncated at residues 402, 410, 414 and 418; Both the 418 (PHD2_181–418); His6 (N, cleaved yes); made in house; host or cells: bacterial culture (2x TY, kanamycin, IPTG)
T6 sequence (Q9GZT9 181-410): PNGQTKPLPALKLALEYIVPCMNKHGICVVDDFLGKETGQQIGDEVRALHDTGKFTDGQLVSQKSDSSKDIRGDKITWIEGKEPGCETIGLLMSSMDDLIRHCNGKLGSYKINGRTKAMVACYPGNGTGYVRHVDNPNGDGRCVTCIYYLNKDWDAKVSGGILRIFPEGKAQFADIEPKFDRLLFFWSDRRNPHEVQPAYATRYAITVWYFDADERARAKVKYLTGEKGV
The assay can be described thus: Non-denaturing ESI-MS crosslinking, 410 truncate. It counts as binding. Particulars: equimolar FeSO4 and compound, 3 h, 37 °C, 200 V. The procedure:
as §1, §3, §4, §5, §6

Assay [7] concerns the target T7, PHD2 K408I (Homo sapiens, UniProt Q9GZT9, K408I).
T7 construct: PHD2_181–426 (hereafter PHD2); His6 (N, cleaved yes); made in house; host or cells: bacterial culture (2x TY, kanamycin, IPTG); QuikChange mutagenesis
Briefly: Non-denaturing ESI-MS crosslinking, K408I variant. It counts as binding. Particulars: equimolar FeSO4 and compound, 3 h, 37 °C. From the text: The site of crosslinking was investigated by trypsin digest and LC-MS/MS. The imine adducts formed by 1/2 were fixed by reduction using sodium cyanoborohydride (Fig. S12, ESI ^†). Modified protein samples were digested (trypsin) and analysed by ‘nano LC-MS/MS’.[19] In all 3 samples, modification by the respective inhibitor was identified on the trypsin-derived peptide 403[…]411, and localised to K408 (Fig. 3B and Fig. S13, ESI ^†).
Fig. S11 Non-denaturing ESI-MS data of K408I PHD2 in the presence of equimolar amounts of FeSO4 and the Michael acceptor 3 after 3 hours incubation at 37 °C in ammonium acetate (15 mM, pH 7.5) at a sample cone voltages of (a) 80V or (b) 200V. Non-denaturing ESI-MS data of […] PHD2 in the presence of equimolar amounts of FeSO4 and 3 after 3 hours incubation at 37 °C in ammonium acetate (15 mM, pH 7.5) at a sample cone voltage of (c) 80V or (d) 200V. The peaks observed are consistent with the following complexes: (A): K408I.Fe; (B): non-covalent K408I.Fe.3 complex, (C): covalent K408I.Fe.3 complex; (D): R411M.Fe; (E): covalent R411M.Fe.3 complex.

In assay [8] the target is PHD1 (Homo sapiens, UniProt Q96KS0). The assay can be described thus: Denaturing MS covalent adduct formation with PHD1. It counts as binding. Conditions: enzyme 20 μM, Fe(II) 30 μM, compound 30 μM, 37 °C, 4 h.
Chain of PHD1 (Q96KS0 whole entry, the tested form may be a part): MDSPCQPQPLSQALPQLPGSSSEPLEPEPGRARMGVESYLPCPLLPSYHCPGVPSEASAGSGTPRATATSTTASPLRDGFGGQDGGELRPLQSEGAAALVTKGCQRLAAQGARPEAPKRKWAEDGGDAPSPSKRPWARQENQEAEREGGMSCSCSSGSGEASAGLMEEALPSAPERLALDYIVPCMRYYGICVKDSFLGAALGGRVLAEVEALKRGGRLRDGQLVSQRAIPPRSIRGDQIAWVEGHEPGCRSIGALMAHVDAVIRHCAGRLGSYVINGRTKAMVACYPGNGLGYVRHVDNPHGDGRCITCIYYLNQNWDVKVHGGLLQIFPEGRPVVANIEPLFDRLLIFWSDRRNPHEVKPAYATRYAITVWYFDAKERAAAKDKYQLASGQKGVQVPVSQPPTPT
The target in assay [9] is PHD2 (residues 181-426) (Homo sapiens, UniProt Q9GZT9). The assay can be described thus: biochemical.
Chain of PHD2 (residues 181-426) (Q9GZT9 181-426): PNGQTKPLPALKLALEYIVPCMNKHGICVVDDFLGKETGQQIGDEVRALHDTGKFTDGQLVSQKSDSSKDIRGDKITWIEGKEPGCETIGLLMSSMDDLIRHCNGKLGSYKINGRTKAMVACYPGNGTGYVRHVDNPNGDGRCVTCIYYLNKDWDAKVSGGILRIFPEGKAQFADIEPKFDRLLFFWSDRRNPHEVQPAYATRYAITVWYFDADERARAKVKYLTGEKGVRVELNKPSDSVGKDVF
Assay [10] deals with HIF-1α in HeLa cells. The assay can be described thus: HIF-1α levels in HeLa cells by anti-HIF-1α immunoblotting. Conditions: 50 or 250 µM, 6 h. (Immunoblotting shows a protein as a band on a membrane.)

T1 sequence (Q9GZT9 181-426): as above
T7 sequence (Q9GZT9 181-426 K408I): as the sequence (Q9GZT9 181-426) above, with K228I counted along it
T4 sequence (Q9GZT9 181-418): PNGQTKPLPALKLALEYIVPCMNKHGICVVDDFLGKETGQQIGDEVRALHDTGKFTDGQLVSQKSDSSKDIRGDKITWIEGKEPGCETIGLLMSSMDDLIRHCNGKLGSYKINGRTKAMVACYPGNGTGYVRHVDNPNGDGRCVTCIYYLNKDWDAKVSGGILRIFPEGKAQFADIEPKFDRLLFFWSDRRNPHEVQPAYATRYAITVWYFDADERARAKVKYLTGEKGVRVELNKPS
T5 sequence (Q9GZT9 181-414): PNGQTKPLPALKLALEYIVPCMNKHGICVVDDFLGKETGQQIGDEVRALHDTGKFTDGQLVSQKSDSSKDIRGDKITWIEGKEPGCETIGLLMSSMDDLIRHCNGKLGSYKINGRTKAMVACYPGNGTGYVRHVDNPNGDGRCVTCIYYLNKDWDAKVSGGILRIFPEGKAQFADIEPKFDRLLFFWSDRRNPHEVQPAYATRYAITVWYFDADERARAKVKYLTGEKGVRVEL
T3 sequence (Q9GZT9 181-402): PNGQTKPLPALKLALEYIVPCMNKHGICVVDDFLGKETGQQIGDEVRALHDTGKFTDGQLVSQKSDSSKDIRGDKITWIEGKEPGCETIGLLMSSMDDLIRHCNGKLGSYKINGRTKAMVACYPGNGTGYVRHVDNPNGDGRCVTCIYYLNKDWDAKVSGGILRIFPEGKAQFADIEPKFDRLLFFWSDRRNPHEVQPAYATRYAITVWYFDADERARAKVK

As usually defined, the IC50 is the concentration that inhibits the measured activity by half. As for `C=CC(=O)Nc1cccc(C(=O)NCC(=O)O)c1O` [compound 3], the “activity of PHD2 pre-incubated with the compound” value in assay [1] is given as “remained as active as the non pre-incubated, uninhibited PHD2”. The “crosslinking with loop truncate” value in assay [2] is reported as “Crosslinking was maintained”. Further, the “crosslinking with C-terminally truncated PHD2” value in assay [3] is “near completely absent”. Besides, in assay [4], the “covalent modification of 418 truncate” value is listed as “covalently modified”. For the same molecule, the “covalent modification of 414 truncate” value in assay [5] is listed as “covalently modified”. Further, the “crosslinking with 410 truncate” value in assay [6] is “Crosslinking did not occur”. Moreover, the “apparent covalent modification of PHD2 K408I” value in assay [7] is less than 10%. For the same molecule, the “covalent reaction with PHD1” value in [8] is “did not covalently react”. The half-inhibitory concentration (IC50) in assay [9] is more than 2000 µM. In [10], the “HIF-1α upregulation in HeLa cells” value is given as “no upregulation of HIF-1α”.
